From patent US12427209B2, “Dual mode 18F-labelled theranostic compounds and uses thereof” (Provincial Health Services Authority, priority 2018, dated 2025)

Columns and labels:
[1] = biological target: T1, VLA-4 expressing B16-F10 cells (Mus musculus, UniProt P09055+Q00651); assay: In vitro saturation binding assay on B16-F10 cells
T1 construct: endogenous in cells; host or cells: B16-F10 murine melanoma cells
Method: Saturation binding assay. In vitro binding saturation assays were performed on B16-F10 cells following published procedures (n=3).(28) Cells were grown to near-confluence on 24 well poly-D-lysine plates. Growth media was removed, and reaction media (RPMI, 1% BSA, 100 U/mL penicillin/streptomycin) was added and allowed to incubate for at least 1 h at 37° C. Increasing concentrations (5 pM to 20 nM) of [^18F]6 were added to the cells and incubated for 1 h at 25° C. with mild agitation. Non-specific binding was determined by repeating the described incubations with [^18F]6 while simultaneously adding 1 (10 μM). After incubation, cells were washed twice with ice-cold PBS, harvested following incubation with trypsin, and measured for radioactivity using a WIZARD 2480 gamma counter (PerkinElmer). Values from the non-specific binding assays were subtracted from the respective values of the specific binding assays. Dissociation constants (Kd'S) were determined using GraphPad PRISM 7 with a one-site specific binding model.

[2] = test system: mice bearing PSMA-expressing LNCaP prostate cancer xenografts; design: species or system mice (NODSCID 1L2RγKO male); conditions: mouse, in vivo
Method: Imaging and biodistribution experiments were performed using NODSCID 1L2RγKO male mice. The mice were maintained and the experiments were conducted in according to the guidelines established by Canadian Council on Animal Care and approved by Animal Ethics Committee of the University of British Columbia. Mice were anesthetized by inhalation with 2% isoflurane in oxygen, and implanted subcutaneously with 1×10^7 LNCaP cells behind left shoulder. Mice were imaged or used in biodistribution studies when the tumor grew up to reach 5-8 mm in diameter during 5-6 weeks. For biodistribution studies, the mice were injected with the radiotracer as described above. For blocking, the mice were co-injected with non-radioactive DCFPyL (0.5 mg). After 1 hour, the mice were anesthetized with 2% isoflurane inhalation, and euthanized by CO2 inhalation. Blood was withdrawn immediately from the heart, and the organs/tissues of interest were collected. The collected organs/tissues were weighed and counted using an automatic gamma counter. The uptake in each organ/tissue was normalized to the injected dose using a standard curve, and expressed as % ID/g.

[3] = highly dilute conditions (~5 mM), pH 7.5, in vitro (ref. 19); cited from earlier work
[4] = test system: B16-F10 tumor-bearing mice; design: species or system mice (male C57BL/6J); conditions: mouse, in vivo
Method: PET/CT imaging studies were carried out on a microPET/CT scanner (Inveon, Siemens). Briefly, for static PET scans, each tumor bearing mouse was injected with 4-6 MBq of F-18 labeled […]3-DOTA via the caudal lateral tail vein under isoflurane sedation. For blocking study, mice were co-injected with 100 μg of non-radioactive […]3-DOTA. After injection, the mice were allowed to recover and roam freely in their cages. After 50 min, the mice were sedated again and positioned in the scanner. A baseline CT scan was obtained for localization and attenuation correction. This was followed by a 10 min static PET scan. The mice were kept warm by a heating pad during acquisition. The mice were euthanized using CO2 inhalation after static PET imaging followed by biodistribution. The PET images were reconstructed using the ordered subset expectation maximization and maximum a posteriori algorithm (OSEM3D/MAP), using 2 OSEM3D iterations followed by 18 MAP iterations, with a requested resolution of 1.5 mm. […] For static PET scans (recorded for 10 min), mice were first injected with 4-6 MBq of ([^18F]6) via the tail vein while anesthetized with 2% isoflurane and were subjected to baseline CT scans (recorded for 10 min) prior to PET imaging. […] Dynamic PET scans involved the described anesthesia, injection of 4-6 MBq of [^18F]6, baseline CT scans, and PET scans recorded from 5 sec. to 52.5 min p.i. […]

[5] = test system: B16-F10 tumor-bearing mice; assay type: in vivo, mice (male C57BL/6J); design: Reduction of accumulation in the spleen by co-injection of 1 / Reduction of accumulation in the intestines by co-injection of 1 / Reduction of accumulation in the lungs by co-injection of 1 / Reduction of accumulation in bone & marrow by co-injection of 1 / Reduction of accumulation in the tumor by co-injection of 1: concentration or dose not given beside the values
Method: All animal experiments were conducted according to the guidelines established by Canadian Council on Animal Care and approved by Animal Ethics Committee of the University of British Columbia. Mice were housed under pathogen-free conditions and kept on twelve-hour light and dark cycles in the Animal Resource Centre of BC Cancer Research Centre, Vancouver, Canada. PET imaging and biodistribution studies were performed using male C57BL/6J mice. For tumor implantation, mice were anesthetized by inhalation with 2% isoflurane in 2.0 L/min of oxygen, and 1×10^6 B16F10 cells were implanted subcutaneously on the right back at the level of the forelimbs. Mice were imaged or used in biodistribution studies once the tumor grew to reach 8-10 mm in diameter in 8-10 days. Mice for biodistribution study only were anesthetized by 2% isoflurane inhalation, and injected with 1-2 MBq of F-18 labeled […]3-DOTA. For blocking studies, 100 μg of non-radioactive […]3-DOTA was co-injected with the radioactive compound. After injection, the mice were allowed to recover and roam freely in their cages, and euthanized by CO2 inhalation 1 h later. Blood was promptly withdrawn, and the organs of interest were harvested, rinsed with 1×PBS (pH 7.4), and blotted dry. Each organ was weighed and the radioactivity of the collected tissue was measured using a WIZARD 2480 (PerkinElmer), normalized to the injected dose using a standard curve and expressed as the percentage of the injected dose per gram of tissue (% ID/g). Biodistribution of DOTA-[^18[…]]6) in B16-F10 tumor-bearing mice. Mice were anesthetized using 2% isoflurane and injected with 2-3 MBq of [^18F]6 via the tail vein. For competitive VLA-4 blocking studies, 200 μg of 1 was co-injected with 2-3 MBq of [^18F]6. At 1 h p.i., mice were euthanized by CO2 (g) inhalation, blood was collected, and the organs were excised. After rinsing and drying the samples, organs were weighed, their radioactivity was recorded using a Wallac WIZARD2 gamma counter (PerkinElmer), and values were expressed as % ID/g for each organ. Two-tailed ANOVA Sidak's multiple comparison tests (GraphPad PRISM) were used to evaluate statistical significance between the biodistribution of [^18F]6 alone compared with competitive blocking of VLA-4 by co-injections of 1.

T1 sequence (Q00651 41-1039): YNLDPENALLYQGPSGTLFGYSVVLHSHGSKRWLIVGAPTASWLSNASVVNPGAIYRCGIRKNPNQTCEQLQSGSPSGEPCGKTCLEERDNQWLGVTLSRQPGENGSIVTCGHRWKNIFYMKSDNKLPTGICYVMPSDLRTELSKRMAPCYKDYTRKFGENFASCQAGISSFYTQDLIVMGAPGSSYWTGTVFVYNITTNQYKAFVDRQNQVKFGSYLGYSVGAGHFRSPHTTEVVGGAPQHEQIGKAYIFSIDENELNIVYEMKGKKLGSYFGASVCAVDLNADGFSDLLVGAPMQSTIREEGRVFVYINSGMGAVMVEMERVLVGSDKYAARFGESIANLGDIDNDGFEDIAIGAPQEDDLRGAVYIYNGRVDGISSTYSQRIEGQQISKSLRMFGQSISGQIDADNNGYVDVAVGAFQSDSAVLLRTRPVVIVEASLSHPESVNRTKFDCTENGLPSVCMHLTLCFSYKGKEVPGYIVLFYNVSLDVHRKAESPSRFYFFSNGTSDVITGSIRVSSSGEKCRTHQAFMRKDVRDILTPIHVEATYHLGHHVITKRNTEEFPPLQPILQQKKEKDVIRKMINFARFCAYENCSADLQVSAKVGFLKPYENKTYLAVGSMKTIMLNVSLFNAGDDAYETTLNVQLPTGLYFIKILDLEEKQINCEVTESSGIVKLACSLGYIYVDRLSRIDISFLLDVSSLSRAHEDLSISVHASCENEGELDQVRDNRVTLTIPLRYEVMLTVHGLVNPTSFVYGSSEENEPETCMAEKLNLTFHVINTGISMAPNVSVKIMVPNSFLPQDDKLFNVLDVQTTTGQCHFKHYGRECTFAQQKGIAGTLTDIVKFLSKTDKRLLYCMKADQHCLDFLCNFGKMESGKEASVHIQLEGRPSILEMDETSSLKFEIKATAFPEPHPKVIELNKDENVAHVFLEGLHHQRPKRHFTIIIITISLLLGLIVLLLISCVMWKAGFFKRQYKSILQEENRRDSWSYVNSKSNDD
T1 sequence (P09055 21-798): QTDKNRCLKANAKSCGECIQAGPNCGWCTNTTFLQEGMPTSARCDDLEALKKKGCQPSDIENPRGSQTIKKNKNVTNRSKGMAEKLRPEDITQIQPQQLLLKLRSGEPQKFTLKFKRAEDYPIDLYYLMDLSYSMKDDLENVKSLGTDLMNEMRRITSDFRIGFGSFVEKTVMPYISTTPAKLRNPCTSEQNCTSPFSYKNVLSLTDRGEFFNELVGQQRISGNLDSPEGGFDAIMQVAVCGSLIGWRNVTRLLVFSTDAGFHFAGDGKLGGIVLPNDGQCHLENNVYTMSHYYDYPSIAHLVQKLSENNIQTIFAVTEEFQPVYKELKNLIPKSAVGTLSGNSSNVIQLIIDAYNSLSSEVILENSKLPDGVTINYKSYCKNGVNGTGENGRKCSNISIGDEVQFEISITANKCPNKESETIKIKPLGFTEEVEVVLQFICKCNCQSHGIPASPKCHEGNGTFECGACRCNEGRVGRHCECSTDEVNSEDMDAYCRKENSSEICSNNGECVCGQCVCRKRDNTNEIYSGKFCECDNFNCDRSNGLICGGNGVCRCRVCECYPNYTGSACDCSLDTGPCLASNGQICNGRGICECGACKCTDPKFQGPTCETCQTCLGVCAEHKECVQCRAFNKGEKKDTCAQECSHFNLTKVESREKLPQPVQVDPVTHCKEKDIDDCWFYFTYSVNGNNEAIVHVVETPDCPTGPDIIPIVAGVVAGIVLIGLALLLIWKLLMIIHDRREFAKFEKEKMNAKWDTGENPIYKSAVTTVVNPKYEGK

## DOTA-AMBF3-PEG2-LLP2A [compound 6]
[1]; comparison with earlier conjugates
  Kd relative to Kd values of other [^18F]RBF3-PEG2-LLP2A conjugates (fold higher): at least 5 fold
[1]; saturation binding of [^18F]6, B16-F10 cells, 1 h at 25° C., n=3
  Kd: 6.9 ± 0.59 nM

## ^18F-PSMA-617-LysAMBF3-DOTA [F-18 labeled PSMA-617-Lys-AMBF3-DOTA]
[2]
  Tumor/Blood baseline: 14.19 ± 3.85
  Tumor/Kidney baseline: 0.09 ± 0.03
  Tumor/Muscle baseline: 41.55 ± 10.83

## C#CC[N+](C)(C)C[B-](F)(F)F [compound 7, N-propargyl-N,N-dimethyl-ammoniomethyl-trifluoroborate]
[3]
  Loss of free fluoride (hydrolytic stability): very slow, first order rate

## DOTA-[^18F]AMBF3-PEG2-LLP2A [[^18F]6]
[4]
  Time of initial perfusion and first pass through the liver (dynamic PET): ≤ 4 min p.i.
  Time to uptake in the tumor (dynamic PET): ≤ 1.9 min p.i.
[5]; 1 h p.i., p<0.0001
  Lowering of tumor-to-blood contrast by VLA-4 blocking: 85%
  Lowering of tumor-to-muscle contrast by VLA-4 blocking: 92%
  Reduction of accumulation in bone & marrow by co-injection of 1: 78%
  Reduction of accumulation in the lungs by co-injection of 1: 85%
  Reduction of accumulation in the spleen by co-injection of 1: 88%
  Reduction of accumulation in the tumor by co-injection of 1: 75%
[5]; 1 h p.i., p<0.05
  Reduction of accumulation in the intestines by co-injection of 1: 43%
[5]; mouse, in vivo
  Reduction of accumulation in the intestines compared to previously investigated [^18F]RBF3-PEG2-LLP2A's: ~10 fold
  Tumor-to-tissue ratio Tumor: Bone & Marrow: 1.98 ± 0.78
  Tumor-to-tissue ratio Tumor: Kidney: 2.22 ± 0.60
